Experimental data: patent US10662205B2, “Cyclic boronic acid ester derivatives and therapeutic uses thereof” (priority 2014, dated 2020)
pKi: −log10 of the molar value. Read-outs that look alike come from different tables or passages of the source.

Experiments:
[1] = system: KP1005 (CTX-M-14); test: Aztreonam potentiation (MPC@4); format: cell-based; conditions: aztreonam 4 μg/mL
[2] = system: KP1009 (CTX-M-15); test: Aztreonam potentiation (MPC@4); format: cell-based; conditions: aztreonam 4 μg/mL
[3] = system: ec308 (SHV-5); test: Aztreonam potentiation (MPC@4); format: cell-based; conditions: aztreonam 4 μg/mL
[4] = system: KP1010 (SHV-12); test: Aztreonam potentiation (MPC@4); format: cell-based; conditions: aztreonam 4 μg/mL
[5] = system: ec302 (TEM-10); test: Aztreonam potentiation (MPC@4); format: cell-based; conditions: aztreonam 4 μg/mL
[6] = system: KP1004 (KPC-2); test: Aztreonam potentiation (MPC@4); format: cell-based; conditions: aztreonam 4 μg/mL
[7] = system: ECL1002; test: Aztreonam potentiation (MPC@4); format: cell-based; conditions: aztreonam 4 μg/mL
[8] = system: EC1010 (CMY-6); test: Aztreonam potentiation (MPC@4); format: cell-based; conditions: aztreonam 4 μg/mL
[9] = system: KP1005 (CTX-M-14); test: Tigemonam potentiation (MPC@4); format: cell-based; conditions: tigemonam 4 μg/mL
[10] = system: KP1009 (CTX-M-15); test: Tigemonam potentiation (MPC@4); format: cell-based
[11] = system: ec308 (SHV-5); test: Tigemonam potentiation (MPC@4); format: cell-based; conditions: tigemonam 4 μg/mL
[12] = system: KP1010 (SHV-12); test: Tigemonam potentiation (MPC@4); format: cell-based
[13] = system: ec302 (TEM-10); test: Tigemonam potentiation (MPC@4); format: cell-based; conditions: tigemonam 4 μg/mL
[14] = system: ECL1002; test: Tigemonam potentiation (MPC@4); format: cell-based; conditions: tigemonam 4 μg/mL
[15] = system: EC1010 (CMY-6); test: Tigemonam potentiation (MPC@4); format: cell-based
[16] = target: CTX-M-14 (Escherichia coli, UniProt Q9L5C7); test: Inhibition of nitrocefin cleavage by purified enzyme (Ki); format: biochemical; conditions: nitrocefin reporter substrate; 10 min preincubation; read-out: Ki CTX-M-14, NCF
Chain of CTX-M-14 (Q9L5C7 29-291): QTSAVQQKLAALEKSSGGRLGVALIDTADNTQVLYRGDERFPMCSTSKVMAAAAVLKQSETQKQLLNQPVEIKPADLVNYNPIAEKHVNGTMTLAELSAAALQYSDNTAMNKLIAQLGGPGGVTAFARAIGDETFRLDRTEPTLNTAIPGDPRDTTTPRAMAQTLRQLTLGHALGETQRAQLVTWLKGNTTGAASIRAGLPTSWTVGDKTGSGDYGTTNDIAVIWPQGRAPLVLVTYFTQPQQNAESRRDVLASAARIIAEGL
Experimental: (§1) Ki values of inhibition of purified class A, C and D enzymes were determined spectrophotometrically using nitrocefin as reporter substrate. Purified enzymes were mixed with various concentrations of inhibitors in reaction buffer and incubated for 10 min at room temperature. Nitrocefin was added and substrate cleavage profiles were recorded at 490 nm every 10 sec for 10 min.

[17] = target: CMY-2 (Klebsiella pneumoniae, UniProt Q48434); test: as above; format: biochemical; conditions: nitrocefin reporter substrate; 10 min preincubation; read-out: Ki CMY-2, NCF
Chain of CMY-2 (Q48434 21-381, species assumed): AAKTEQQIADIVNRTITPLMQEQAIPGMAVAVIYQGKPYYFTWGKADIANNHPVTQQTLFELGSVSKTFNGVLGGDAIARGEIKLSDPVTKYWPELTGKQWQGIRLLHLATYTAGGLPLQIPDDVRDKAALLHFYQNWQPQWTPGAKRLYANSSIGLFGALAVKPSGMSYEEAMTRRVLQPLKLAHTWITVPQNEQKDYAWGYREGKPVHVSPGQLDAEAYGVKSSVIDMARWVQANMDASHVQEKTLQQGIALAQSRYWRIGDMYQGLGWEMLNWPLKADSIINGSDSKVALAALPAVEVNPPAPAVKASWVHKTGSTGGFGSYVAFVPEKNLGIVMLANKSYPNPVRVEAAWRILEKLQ
Experimental: as §1, with “min. These experiments confirmed that the described compounds are inhibitors with a broad-spectrum of activity towards various β-lactamases.” for “min.”

[18] = target: KPC-2 (Klebsiella pneumoniae, UniProt Q9F663); test: as above; format: biochemical; conditions: nitrocefin reporter substrate; 10 min preincubation; read-out: Ki KPC-2, NCF
Chain of KPC-2 (Q9F663 25-293, looked up, species assumed): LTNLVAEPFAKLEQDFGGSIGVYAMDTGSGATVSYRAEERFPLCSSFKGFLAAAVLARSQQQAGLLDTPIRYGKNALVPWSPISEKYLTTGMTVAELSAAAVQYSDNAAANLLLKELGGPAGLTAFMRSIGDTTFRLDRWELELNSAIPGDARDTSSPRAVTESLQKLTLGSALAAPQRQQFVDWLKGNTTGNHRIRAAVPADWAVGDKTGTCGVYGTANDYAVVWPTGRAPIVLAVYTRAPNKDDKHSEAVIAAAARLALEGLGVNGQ
Experimental: as §1, with “min. These experiments confirmed that the described compounds are inhibitors with a broad-spectrum of activity towards various β-lactamases.” for “min.”

[19] = target: OXA-48 (Klebsiella pneumoniae, UniProt Q6XEC0); test: as above; format: biochemical; conditions: nitrocefin reporter substrate; 10 min preincubation; read-out: Ki OXA-48, NCF
Chain of OXA-48 (Q6XEC0 23-265, looked up, species assumed): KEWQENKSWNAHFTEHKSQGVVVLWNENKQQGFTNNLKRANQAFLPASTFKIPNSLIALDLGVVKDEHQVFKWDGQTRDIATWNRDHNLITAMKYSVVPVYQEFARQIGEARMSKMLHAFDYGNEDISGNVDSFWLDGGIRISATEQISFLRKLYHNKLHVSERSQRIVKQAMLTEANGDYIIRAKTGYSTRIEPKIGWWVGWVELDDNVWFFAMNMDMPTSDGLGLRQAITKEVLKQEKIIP
Experimental: as §1, with “min. These experiments confirmed that the described compounds are inhibitors with a broad-spectrum of activity towards various β-lactamases.” for “min.”

[20] = system: KP1004 (KPC-2); test: Biapenem potentiation (MPC@1); conditions: biapenem 1 μg/mL
[21] = system: KP1086 (OXA-48); test: Biapenem potentiation (MPC@1); conditions: biapenem 1 μg/mL
[22] = target: SHV-12 (Klebsiella pneumoniae, UniProt P0AD64, E235K/G234S/L31Q); test: Inhibition of nitrocefin cleavage by purified enzyme (Ki); format: biochemical
Chain of SHV-12 (P0AD64 22-286 L31Q/G234S/E235K): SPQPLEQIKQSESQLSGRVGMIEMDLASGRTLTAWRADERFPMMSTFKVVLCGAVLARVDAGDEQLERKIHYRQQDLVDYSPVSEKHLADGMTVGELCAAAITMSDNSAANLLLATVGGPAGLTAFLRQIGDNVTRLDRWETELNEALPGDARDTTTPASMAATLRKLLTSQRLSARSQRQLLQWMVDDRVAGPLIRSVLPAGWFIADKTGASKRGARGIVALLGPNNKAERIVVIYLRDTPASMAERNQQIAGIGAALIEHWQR
Experimental: as §1

[23] = target: P99 (Enterobacter cloacae, UniProt P05364); test: biochemical; conditions: nitrocefin reporter substrate; 10 min preincubation; read-out: Ki P99, NCF
Chain of P99 (P05364 21-381): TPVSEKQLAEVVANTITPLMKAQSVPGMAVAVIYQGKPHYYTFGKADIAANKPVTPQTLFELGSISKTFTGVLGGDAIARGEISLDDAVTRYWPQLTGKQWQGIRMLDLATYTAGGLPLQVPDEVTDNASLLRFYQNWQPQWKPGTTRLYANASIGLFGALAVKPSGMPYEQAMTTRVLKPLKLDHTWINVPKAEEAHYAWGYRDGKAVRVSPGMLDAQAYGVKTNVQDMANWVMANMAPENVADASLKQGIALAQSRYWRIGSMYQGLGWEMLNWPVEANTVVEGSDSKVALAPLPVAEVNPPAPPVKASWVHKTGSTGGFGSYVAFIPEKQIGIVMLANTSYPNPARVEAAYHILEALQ
Experimental: as §1

[24] = system: PAM1032/KPC-2; test: Biapenem potentiation MPC64, efflux proficient strain; format: cell-based, Pseudomonas aeruginosa; set-up: unit not given here; conditions: efflux proficient (MexAB-OprM overexpressed); decrease biapenem MIC 64-fold, 32 to 0.5 μg/ml
Experimental: (§2) Efflux of BLIs from Pseudomonas aeruginosa by the MexAB-OprM efflux pump was also evaluated. The plasmid expressing the gene encoding KPC-2 was introduced into two strains of P. aeruginosa, PAM1032 and PAM1154 that overexpressed or lacked MexAB-OprM, respectively. Due to expression of KPC-2 both strains became resistant to biapenem. […] Potency of BLIs to potentiate biapenem in these strains was determined. […] The ratio of MPC64 values for each BLI in PAM1032/KPC-2 (efflux proficient) and PAM1154/KPC-2 (efflux deficient) was determined to generate the Efflux Index (EI).

[25] = system: PAM1154/KPC-2; test: Biapenem potentiation MPC64, efflux deficient strain; format: cell-based, Pseudomonas aeruginosa; set-up: unit not given here; conditions: efflux deficient (lacks MexAB-OprM); decrease biapenem MIC 64-fold, 32 to 0.5 μg/ml
Experimental: as §2

Compound | MPC@4 aztreonam potentiation [1] | MPC@4 aztreonam potentiation [2] | MPC@4 aztreonam potentiation [3] | MPC@4 aztreonam potentiation [4] | MPC@4 aztreonam potentiation [5] | MPC@4 aztreonam potentiation [6] | MPC@4 aztreonam potentiation [7] | MPC@4 aztreonam potentiation [8] | MPC@4 tigemonam potentiation [9] | MPC@4 tigemonam potentiation [10] | MPC@4 tigemonam potentiation [11] | MPC@4 tigemonam potentiation [12] | MPC@4 tigemonam potentiation [13] | MPC@4 tigemonam potentiation [14] | pKi [16] | pKi [17] | pKi [18] | pKi [19] | MPC@1 biapenem potentiation [20] | MPC@1 biapenem potentiation [21] | further results
O=C(O)[C@H]1/C(=C/CO)O[C@@H]2CC(=O)N21 [Clavulanic Acid, reference compound] | X (X = MPC@4 ≤ 5 μg/mL) | X (X = MPC@4 ≤ 5 μg/mL) | X (X = MPC@4 ≤ 5 μg/mL) | X (X = MPC@4 ≤ 5 μg/mL) | X (X = MPC@4 ≤ 5 μg/mL) | Z (Z = MPC@4 > 20 μg/mL) | Z (Z = MPC@4 > 20 μg/mL) | Z (Z = MPC@4 > 20 μg/mL) | X (X = MPC@4 ≤ 5 μg/mL) | X (key: X = MPC@4 ≤ 5 μg/mL; Y = 5 μg/mL < MPC@4 ≤ 20 μg/mL; Z = MPC@4 > 20 μg/mL) | X (X = MPC@4 ≤ 5 μg/mL) | X (key: X = MPC@4 ≤ 5 μg/mL; Y = 5 μg/mL < MPC@4 ≤ 20 μg/mL; Z = MPC@4 > 20 μg/mL) | X (X = MPC@4 ≤ 5 μg/mL) | Y (Y = 5 μg/mL < MPC@4 ≤ 20 μg/mL) | > 7.00 | < 6.00 | < 6.00 | < 6.00 | Y (Y = 5 μg/mL < MPC@1 ≤ 20 μg/mL) | Z (Z = MPC@1 > 20 μg/mL) | MPC@4 tigemonam potentiation [15]: Y (key: X = MPC@4 ≤ 5 μg/mL; Y = 5 μg/mL < MPC@4 ≤ 20 μg/mL; Z = MPC@4 > 20 μg/mL)
N#CCSCC(=O)N[C@H]1CC=C[C@@H]2CC(=O)OB1O2 [Compound 2, 2-(CYANOMETHYLTHIO)-N-((2R,6S)-8-OXO-9,10-DIOXA-1-BORABICYCLO[4.3.1]DEC-4-EN-2-YL)ACETAMIDE] | X (X = MPC@4 ≤ 5 μg/mL) | X (X = MPC@4 ≤ 5 μg/mL) | X (X = MPC@4 ≤ 5 μg/mL) | X (X = MPC@4 ≤ 5 μg/mL) | X (X = MPC@4 ≤ 5 μg/mL) | X (X = MPC@4 ≤ 5 μg/mL) | X (X = MPC@4 ≤ 5 μg/mL) | X (X = MPC@4 ≤ 5 μg/mL) | X (X = MPC@4 ≤ 5 μg/mL) | X (key: X = MPC@4 ≤ 5 μg/mL; Y = 5 μg/mL < MPC@4 ≤ 20 μg/mL; Z = MPC@4 > 20 μg/mL) | X (X = MPC@4 ≤ 5 μg/mL) | X (key: X = MPC@4 ≤ 5 μg/mL; Y = 5 μg/mL < MPC@4 ≤ 20 μg/mL; Z = MPC@4 > 20 μg/mL) | Y (Y = 5 μg/mL < MPC@4 ≤ 20 μg/mL) | X (X = MPC@4 ≤ 5 μg/mL) | > 7.00 | > 7.00 | 6.00 to 7.00 | 6.00 to 7.00 | X (X = MPC@1 ≤ 5 μg/mL) | Z (Z = MPC@1 > 20 μg/mL) | MPC@4 tigemonam potentiation ([15]; tigemonam 4 μg/mL, EC1010, CMY-6): X (X = MPC@4 ≤ 5 μg/mL); pKi [22]: > 7.00; pKi [23]: > 7.00; PAM1032/KPC-2 Biapenem MPC64 [24]: 80; PAM1154/KPC-2 Biapenem MPC64 [25]: 5
